Assay results: PMC7914897, “Cytotoxic Potential of a-Azepano- and 3-Amino-3,4-SeCo-Triterpenoids” (International Journal of Molecular Sciences, 2021)

Columns and labels:
[1] = tested on: NIH 3T3 (non-malignant mouse fibroblasts); test: SRB cytotoxicity assay, 72 h; format: cell-based; conditions: Mus musculus, NIH3T3; NIH 3T3, 72 h, cut-off 30 µM; read-out: EC50
Outline: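 EC50 values from SRB absorbance (570 nm) after TCA fixation, as percent surviving cells versus untreated controls. Compound exposure was 72 h at 0–30 µM, starting 24 h post-seeding, with final DMSO not above 0.5%.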

[2] = tested on: LOX IMVI (Melanoma); test: NCI-60 screen (SRB, 48 h); format: cell-based; conditions: Homo sapiens
[3] = tested on: Leukemia subpanel; test: cells; conditions: Homo sapiens
[4] = tested on: Prostate cancer subpanel; test: NCI-60 screen, subpanel; conditions: Homo sapiens
[5] = tested on: K-562 (Leukemia); test: NCI-60 screen (SRB, 48 h); conditions: Homo sapiens
[6] = tested on: A549/ATCC (NSC lung cancer); test: NCI-60 screen (SRB, 48 h); conditions: Homo sapiens
[7] = tested on: HCT-116 (Colon cancer); test: NCI-60 screen (SRB, 48 h); conditions: Homo sapiens
[8] = tested on: HCT-15 (Colon cancer); test: NCI-60 screen (SRB, 48 h); conditions: Homo sapiens
[9] = tested on: KM12 (Colon cancer); test: NCI-60 screen (SRB, 48 h); conditions: Homo sapiens
[10] = tested on: SNB-19 (CNS cancer); test: NCI-60 screen (SRB, 48 h); conditions: Homo sapiens
[11] = tested on: U251 (CNS cancer); test: NCI-60 screen (SRB, 48 h); conditions: Homo sapiens
[12] = tested on: MALME-3M (Melanoma); test: NCI-60 screen (SRB, 48 h); conditions: Homo sapiens
[13] = tested on: SK-MEL-2 (Melanoma); test: NCI-60 screen (SRB, 48 h); conditions: Homo sapiens
[14] = tested on: UACC-62 (Melanoma); test: NCI-60 screen (SRB, 48 h); conditions: Homo sapiens
[15] = tested on: IGROV1 (Ovarian cancer); test: NCI-60 screen (SRB, 48 h); conditions: Homo sapiens
[16] = tested on: NCI/ADR-RES (Ovarian cancer); test: NCI-60 screen (SRB, 48 h); conditions: Homo sapiens
[17] = tested on: RXF 393 (Renal cancer); test: NCI-60 screen (SRB, 48 h); conditions: Homo sapiens
[18] = tested on: SN12C (Renal cancer); test: NCI-60 screen (SRB, 48 h); conditions: Homo sapiens
[19] = tested on: TK-10 (Renal cancer); test: NCI-60 screen (SRB, 48 h); conditions: Homo sapiens
[20] = tested on: PC-3 (Prostate cancer); test: NCI-60 screen (SRB, 48 h); conditions: Homo sapiens
[21] = tested on: MCF7 (Breast cancer); test: NCI-60 screen (SRB, 48 h); conditions: Homo sapiens
[22] = tested on: MDA-MB-31/ATCC (Breast cancer); test: NCI-60 screen (SRB, 48 h); conditions: Homo sapiens
[23] = tested on: HS 578T (Breast cancer); test: NCI-60 screen (SRB, 48 h); conditions: Homo sapiens

`C=C(C)[C@@H]1CC[C@]2(C)[C@H](CC=C3[C@@H]4[C@@H](C)[C@H](C)CC[C@]4(CO)CC[C@]32C)[C@@]1(C)CCCN` [Compound 19] was tested, and the EC50 [1] was 4.64 ± 0.6 µM, the IC (TGI) ([2]; 48 h) was 1.57 µM and the activity at 10 µM ([2]; 48 h, 1 dose 10 µM, read-out: Growth % of the Most Sensitive Cell Lines) was -99%. For the same compound, the GI50 ([2]; read-out: GI50) was 0.86 µM, the CC50 ([2]; read-out: LC50 (the source's name)) was 2.86 µM and the IC (TGI) ([3]; 48 h, read-out: TGI MG_MID) was 3.81 µM. The GI50 ([3]; read-out: GI50 MG_MID) was 1.23 µM, the CC50 ([3]; read-out: LC50 MG_MID) was 33.2 µM and the IC (TGI) ([4]; 48 h, read-out: TGI MG_MID) was 5.25 µM. It also gave a GI50 ([4]; read-out: GI50 MG_MID) of 1.43 µM, a CC50 ([4]; read-out: LC50 MG_MID) of 18.7 µM and a GI50 ([5]; K562) of 1.22 µM. The IC (TGI) ([5]; K562, 48 h, read-out: TGI) was 3.63 µM, the CC50 ([5]; K562, read-out: LC50) was > 50 µM and the GI50 ([6]; A549) was 1.59 µM. For the same compound, the IC (TGI) ([6]; A549, 48 h, read-out: TGI) was 5.11 µM, the CC50 ([6]; A549, read-out: LC50) was > 50 µM and the GI50 ([7]; HCT-116) was 0.81 µM. It also gave an IC (TGI) ([7]; HCT-116, 48 h, read-out: TGI) of 1.54 µM, a CC50 ([7]; HCT-116, read-out: LC50) of 2.93 µM and a GI50 ([8]; HCT-15) of 0.84 µM. It also gave an IC (TGI) ([8]; HCT-15, 48 h, read-out: TGI) of 1.76 µM, a CC50 ([8]; HCT-15, read-out: LC50) of 3.69 µM and a GI50 ([9]; KM12) of 0.91 µM. The IC (TGI) ([9]; KM12, 48 h, read-out: TGI) was 1.65 µM, the CC50 ([9]; KM12, read-out: LC50) was 3 µM and the GI50 ([10]; SNB-19) was 2.14 µM. The IC (TGI) ([10]; SNB-19, 48 h, read-out: TGI) was 8.11 µM, the CC50 ([10]; SNB-19, read-out: LC50) was 25 µM and the GI50 ([11]; U-251) was 0.92 µM. It also gave an IC (TGI) ([11]; U-251, 48 h, read-out: TGI) of 1.82 µM, a GI50 [12] of 0.73 µM and an IC (TGI) ([12]; 48 h, read-out: TGI) of 1.42 µM. The CC50 ([12]; read-out: LC50) was 2.74 µM, the GI50 ([13]; SK-MEL-2) was 1.73 µM and the IC (TGI) ([13]; SK-MEL-2, 48 h, read-out: TGI) was 5.04 µM. For the same compound, the CC50 ([13]; SK-MEL-2, read-out: LC50) was 18.5 µM, the GI50 ([14]; UACC-62) was 5.82 µM and the IC (TGI) ([14]; UACC-62, 48 h, read-out: TGI) was 12.6 µM. It also gave a CC50 ([14]; UACC-62, read-out: LC50) of 27.3 µM, a GI50 ([15]; IGROV-1) of 0.89 µM and an IC (TGI) ([15]; IGROV-1, 48 h, read-out: TGI) of 1.67 µM. The CC50 ([15]; IGROV-1, read-out: LC50) was 3.14 µM, the GI50 [16] was 0.99 µM and the IC (TGI) ([16]; 48 h, read-out: TGI) was 2.17 µM. For the same compound, the CC50 ([16]; read-out: LC50) was 4.77 µM, the GI50 ([17]; RXF 393) was 0.83 µM and the IC (TGI) ([17]; RXF 393, 48 h, read-out: TGI) was 1.59 µM. It also gave a CC50 ([17]; RXF 393, read-out: LC50) of 3.07 µM, a GI50 [18] of 0.84 µM and an IC (TGI) ([18]; 48 h, read-out: TGI) of 1.67 µM. For the same compound, the CC50 ([18]; read-out: LC50) was 3.34 µM, the GI50 ([19]; TK-10) was 2.21 µM and the IC (TGI) ([19]; TK-10, 48 h, read-out: TGI) was 9.75 µM. For the same compound, the CC50 ([19]; TK-10, read-out: LC50) was 24.6 µM, the GI50 ([20]; PC-3) was 1.65 µM and the IC (TGI) ([20]; PC-3, 48 h, read-out: TGI) was 7.48 µM. It also gave a CC50 ([20]; PC-3, read-out: LC50) of 26 µM, a GI50 ([21]; MCF7) of 0.83 µM and an IC (TGI) ([21]; MCF7, 48 h, read-out: TGI) of 1.73 µM. It also gave a GI50 [22] of 0.96 µM, an IC (TGI) ([22]; 48 h, read-out: TGI) of 1.71 µM and a CC50 ([22]; read-out: LC50) of 3.04 µM. For the same compound, the GI50 [23] was 0.99 µM, the IC (TGI) ([23]; 48 h, read-out: TGI) was 2.23 µM and the CC50 ([23]; read-out: LC50) was 5 µM.
